The record followed here is US8258122B2, “3-([1,2,4]triazolo[4,3-a]pyridin-7-yl)benzamide derivatives” (Almirall, S.A., priority 2007, dated 2012).

The structures appear in SMILES notation.

Broadly, the IC50 is the concentration that gives 50% inhibition.

T1 sequence (Q16539 whole entry): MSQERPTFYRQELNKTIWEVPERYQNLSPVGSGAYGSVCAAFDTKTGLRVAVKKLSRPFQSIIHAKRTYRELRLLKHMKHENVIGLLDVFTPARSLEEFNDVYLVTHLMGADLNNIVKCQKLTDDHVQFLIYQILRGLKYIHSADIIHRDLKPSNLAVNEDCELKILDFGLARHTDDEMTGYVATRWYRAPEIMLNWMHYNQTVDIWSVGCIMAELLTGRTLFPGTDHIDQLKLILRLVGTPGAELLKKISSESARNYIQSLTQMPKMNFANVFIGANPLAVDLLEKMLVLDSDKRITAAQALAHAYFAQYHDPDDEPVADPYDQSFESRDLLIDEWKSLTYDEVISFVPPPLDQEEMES

This experiment addresses T1, human p38alfa (SAPKa) enzyme (Homo sapiens, UniProt Q16539).
T1 construct: purchased University of Dundee
Description: p38 enzymatic inhibition assay (FRET, biotinylated ATF2 substrate). The note with it: 1 h pre-incubation; ATF2 0.62 μM, ATP 60 μM; 25° C.; read-out: p38α IC50. It is filed as biochemical. On the procedure:
Enzymatic activity assay was performed in 96-well microtiter plates (Corning, catalog number # 3686) using a total volume of 50 μl of an assay buffer composed of 50 mM HEPES pH 7.5, 10 mM MgCl2, 1.75 mM Na3VO4.
Various concentrations of the test compound or vehicle controls were pre-incubated for one hour with 0.055 μg/ml of the human p38alfa (SAPKa) enzyme (obtained from University of Dundee). The reaction started by addition of biotinylated ATF2 substrate and ATP in concentrations around their Km values (final concentration 0.62 μM and 60 μM respectively) and took place for one hour at 25° C. Addition of the detection reagents, streptavidin—XL665 and anti-phosphoresidue antibody coupled to Europium cryptate, caused the juxtaposition of the cryptate and the XL665 fluorophore, resulting in fluorescence energy transfer (FRET). The FRET intensity depends on the amount of bounded cryptate antibody, which is proportional to the extent of substrate phosphorylation. FRET intensity was measured using Victor 2V spectrofluorometer.
Data were analyzed by non-linear regression (Hill equation) to generate a dose-response curve. The calculated IC50 value is the concentration of the test compound that caused a 50% decrease in the maximal FRET intensity.
With `Cc1ccc(C(=O)NC2CC2)cc1-c1cc2nnc(C(C)(C)C)n2cc1F` [Example 18, 3-(3-tert-Butyl-6-fluoro-[1,2,4]triazolo[4,3-a]pyridin-7-yl)-N-cyclopropyl-4-methylbenzamide], the IC50 amounted to 3.2 nM.
The value for `CO[C@@H](C)c1nnc2cc(-c3cc(C(=O)NC4CC4)ccc3C)ccn12` [Example 38, N-Cyclopropyl-3-{3-[(1S)-1-methoxyethyl][1,2,4]triazolo[4,3-a]pyridin-7-yl}-4-methylbenzamide] was 38 nM.
The same measure for `Cc1ccc(C(=O)NC2CC2)cc1-c1ccn2c(NCC3CC3)nnc2c1` [Example 7, N-Cyclopropyl-3-(3-(cyclopropylmethylamino)-[1,2,4]triazolo[4,3-a]pyridin-7-yl)-4-methylbenzamide]: 75 nM; for `Cc1c(F)cc(C(=O)NC2CC2)cc1-c1ccn2c(-c3ccncc3Cl)nnc2c1` [Example 31, 3-[3-(3-Chloropyridin-4-yl)[1,2,4]triazolo[4,3-a]pyridin-7-yl]-N-cyclopropyl-5-fluoro-4-methylbenzamide]: 0.3 nM.
The same measure for `Cc1ccc(C(=O)NC2CC2)cc1-c1ccn2c(C(C)(C)C)nnc2c1` [Example 1, 3-(3-tert-Butyl-[1,2,4]triazolo[4,3-a]pyridin-7-yl)-N-cyclopropyl-4-methylbenzamide]: 16 nM; for `Cc1c(F)cc(C(=O)NC2CC2)cc1-c1ccn2c(C(C)(C)C)nnc2c1` [Example 9, 3-(3-tert-Butyl-[1,2,4]triazolo[4,3-a]pyridin-7-yl)-N-cyclopropyl-5-fluoro-4-methylbenzamide]: 2 nM; for `Cc1ccc(C(=O)NC2CC2)cc1-c1ccn2c(-c3ccncc3Cl)nnc2c1` [Example 30, 3-[3-(3-Chloropyridin-4-yl)[1,2,4]triazolo[4,3-a]pyridin-7-yl]-N-cyclopropyl-4-methylbenzamide]: 38 nM.
With `Cc1c(F)cc(C(=O)NC2CC2)cc1-c1ccn2c(C(C)(C)O)nnc2c1` [Example 45, N-Cyclopropyl-3-fluoro-5-[3-(1-hydroxy-1-methylethyl)[1,2,4]triazolo[4,3-a]pyridin-7-yl]-4-methylbenzamide], the IC50 is 3.1 nM.
The same measure for `Cc1c(F)cc(C(=O)NC2CC2)cc1-c1c(F)cn2c(C(C)(C)N)nnc2c1F` [Example 46, 3-[3-(1-Amino-1-methylethyl)-6,8-difluoro[1,2,4]triazolo[4,3-a]pyridin-7-yl]-N-cyclopropyl-5-fluoro-4-methylbenzamide]: 11.9 nM.
In the case of `Cc1ccc(C(=O)NC2CC2)cc1-c1ccn2c(-c3ccccc3Cl)nnc2c1` [Example 6, 3-(3-(2-Chlorophenyl)-[1,2,4]triazolo[4,3-a]pyridin-7-yl)-N-cyclopropyl-4-methylbenzamide], the IC50 stood at 6 nM.
With `Cc1ccc(C(=O)NC2CC2)cc1-c1ccn2c(N3CCCC3)nnc2c1` [Example 16, N-Cyclopropyl-4-methyl-3-(3-pyrrolidin-1-yl-[1,2,4]triazolo[4,3-a]pyridin-7-yl)-benzamide], the IC50 is 83 nM.
Turning to `Cc1c(F)cc(C(=O)NC2CC2)cc1-c1ccn2c(C(C)C)nnc2c1` [Example 28, N-cyclopropyl-3-fluoro-5-(3-isopropyl[1,2,4]triazolo[4,3-a]pyridin-7-yl)-4-methylbenzamide], the IC50 is 3 nM.
In the case of `Cc1c(F)cc(C(=O)NC2CC2)cc1-c1c(F)cn2c(C(C)(C)N(C)C)nnc2c1F` [Example 47, N-Cyclopropyl-3-{3-[1-(dimethylamino)-1-methylethyl]-6,8-difluoro[1,2,4]triazolo-[4,3-a]pyridin-7-yl}-5-fluoro-4-methylbenzamide], the IC50 is 15.4 nM.
The same measure for `Cc1c(F)cc(C(=O)NC2CC2)cc1-c1ccn2c(C3CCOCC3)nnc2c1` [Example 33, N-Cyclopropyl-3-fluoro-4-methyl-5-[3-(tetrahydro-2H-pyran-4-yl)[1,2,4]triazolo[4,3-a]pyridin-7-yl]benzamide]: 30 nM; for `Cc1c(F)cc(C(=O)NC2CC2)cc1-c1ccn2c(C(=O)N3CCCC3)nnc2c1` [Example 42, N-Cyclopropyl-3-fluoro-4-methyl-5-[3-(pyrrolidin-1-ylcarbonyl)[1,2,4]triazolo[4,3-a]pyridin-7-yl]benzamide]: 46 nM; for `Cc1c(F)cc(C(=O)NC2CC2)cc1-c1c(F)cn2c(C3CC3)nnc2c1F` [Example 23, N-cyclopropyl-3-(3-cyclopropyl-6,8-difluoro[1,2,4]triazolo[4,3-a]pyridin-7-yl)-5-fluoro-4-methylbenzamide]: 10 nM.
Consider `Cc1c(F)cc(C(=O)NC2CC2)cc1-c1cc2nnc(C(C)(C)C)n2cc1F` [Example 19, 3-(3-tert-Butyl-6-fluoro-[1,2,4]triazolo[4,3-a]pyridin-7-yl)-N-cyclopropyl-5-fluoro-4-methylbenzamide], for which the IC50 worked out at 2 nM.
